{
  "source": "patent US8679478B2",
  "about": "“Methods of lysosomal storage disease therapy” (Duke University, priority 2010, dated 2014)",
  "assay_type_in_all_cases": "in vivo, mouse",
  "key": {"GAA-KO mice": {"test_system": "GAA-KO mice", "assay": "Weight gain, liver-targeted gene therapy plus clenbuterol", "conditions": "vector plus clenbuterol v. mock treatment; p=0.06", "procedure": "FIG. 4A-4B depicts enhanced Rotarod performance and weight gain following liver-targeted gene therapy plus clenbuterol treatment. The GAA-KO mice (5 per group) were injected with AAV-LSPhGAA (2×10^10 vector particles/mouse). Vector treated mice were treated with clenbuterol or untreated. Non-vector treated GAA-KO mice were treated with clenbuterol or untreated to serve as controls. Mice were euthanized for tissue analysis 4 weeks after vector injection. […] Mean+/−standard deviation are shown. Statistically significant differences indicated (*=p<0.05; **=p<0.01).\nFor in vivo analysis of AAV vectors, stocks were administered intravenously (via the retroorbital sinus) in 3 month-old and 15 month-old GAA-KO mice, and to 3 month-old tolerant GAA-KO and DKO mice. Clenbuterol (30 μg/ml) was administered to groups of 3 month-old vector-injected and mock-injected male GAA-KO mice in drinking water for 28 days. At the indicated time points post-injection, tissue samples were obtained and processed as described below. All animal procedures were done in accordance with Duke University Institutional Animal Care and Use Committee-approved guidelines. GAA activity and glycogen content were analyzed essentially as described (Sun et al., Mol. Ther., 2005, 11:889-898; Sun et al., Mol. Ther., 2005, 11: 57-65). Rotarod testing was performed essentially as described (Sun, B. D. et al. 2005). […]"}, "[1]": {"test_system": "immune tolerant GAA-KO mice", "assay": "Wire hang testing, ERT plus β2 agonist", "conditions": "clenbuterol plus ERT v. ERT alone", "procedure": "GAA-KO mice were administered four weekly doses of rhGAA (20 mg/kg), and treated with medium dose clenbuterol (n=7), albuterol (n=4) or untreated (n=6 or 3). […] Mean+/−standard deviation are shown. P values indicate statistically significant differences (lines).\nTwo β2 agonists were evaluated in combination with ERT, clenbuterol and albuterol. The dose of clenbuterol was reduced 5-fold from the concentration used in Example 4, to 6 mg/l in drinking water, while albuterol was evaluated at the higher dose (30 mg/l in drinking water). Groups of 3 month-old immune tolerant GAA-KO mice (Raben et al., Human Mol. Genet., 2001, 10:2039-2047) were treated with four weekly doses of rhGAA (20 mg/kg body weight), with or without concurrent β2 agonist treatment.\nMice were sacrificed 7 days after the last injection. Selected tissues were collected for GAA enzyme activity and glycogen content analyses. […] GAA activity and glycogen content analyses, Rotarod testing, and Western blot detection of CI-MPR was performed essentially as described (Koeberl et al., Mol. Genet. Metab., 2011, 103:107-112. Wire hang testing was performed with a 0.5 cm mesh hardware cloth fixed to an 8 by 10 inch frame. Mice were placed on the wire mesh, which was slowly inverted 6 inches over a cage containing paper bedding. The latency, or time until the mouse fell into the cage, was recorded."}, "[2]": {"test_system": "immune tolerant GAA-KO mice", "assay": "GAA activity in tissues, ERT plus β2 agonist (Example 6)", "procedure": "(§1) Male GAA-KO mice were administered four weekly doses of 20 mg/kg body weight of rhGAA and sacrificed one week following the last injection. Groups of mice were treated with clenbuterol (n=6), albuterol (n=4) or untreated (n=6). Mice were euthanized for tissue analysis 5 weeks after initiation of ERT.\n(§2) Cerebral and cerebellar hemispheres were analyzed 5 weeks following the initiation of ERT. Groups of mice were treated with clenbuterol (n=6), albuterol (n=4) or untreated (n=6).\n(§3) Two β2 agonists were evaluated in combination with ERT, clenbuterol and albuterol. […] Groups of 3 month-old immune tolerant GAA-KO mice (Raben et al., Human Mol. Genet., 2001, 10:2039-2047) were treated with four weekly doses of rhGAA (20 mg/kg body weight), with or without concurrent β2 agonist treatment.\n(§4) Mice were sacrificed 7 days after the last injection. Selected tissues were collected for GAA enzyme activity and glycogen content analyses. All animal procedures were done in accordance with Duke University Institutional Animal Care and Use Committee-approved guidelines. GAA activity and glycogen content analyses, Rotarod testing, and Western blot detection of CI-MPR was performed essentially as described (Koeberl et al., Mol. Genet. Metab., 2011, 103:107-112. Wire hang testing was performed with a 0.5 cm mesh hardware cloth fixed to an 8 by 10 inch frame. Mice were placed on the wire mesh, which was slowly inverted 6 inches over a cage containing paper bedding. The latency, or time until the mouse fell into the cage, was recorded."}, "[3]": {"test_system": "immune tolerant GAA-KO mice", "assay": "Glycogen content in tissues, ERT plus β2 agonist (Example 6)", "procedure": "as §1, §2, §3, §4"}},
  "data": [
    {"smiles": "CC(C)(C)NCC(O)c1cc(Cl)c(N)c(Cl)c1", "note": "(stereo not drawn) [clenbuterol]", "values": [
      {"measurement": "weight gain", "setting": "GAA-KO mice", "result": "trend toward greater weight gain"},
      {"measurement": "Wire hang latency", "setting": "[1]", "result": "increased significantly"},
      {"measurement": "GAA activity", "setting": "[2]; cerebellum, 5 weeks after initiation of ERT, clenbuterol p=0.08, albuterol p=0.09", "result": "trend toward increased GAA activity"},
      {"measurement": "GAA activity in tissues with reduced glycogen content", "setting": "[2]; β2 agonist plus ERT v. ERT alone", "result": "unchanged"},
      {"measurement": "Glycogen content", "setting": "[3]; all striated muscles with the exception of tibialis anterior, clenbuterol plus ERT v. ERT alone", "result": "reduced significantly"},
      {"measurement": "Glycogen content", "setting": "[3]; cerebellum, β2 agonist plus ERT v. ERT alone", "result": "reduced significantly"}
    ]}
  ]
}
